Kd data for 106 compounds are collected here from PubChem BioAssay AID1648 (Sanford-Burnham Center for Chemical Genomics, 2009).

Molecules are shown by their SMILES. Active and inactive are the calls of the source. The rule behind the calls is not given here. A value given as a limit tells only on which side of the number the result lay.

The target of this assay is Serine/threonine-protein kinase mTOR (Homo sapiens) (UniProt P42345). Nature of the assay: mTOR FRB domain ligand binding – biophysical, NMR (AID 1648). Conditions: NMR binding to FRB domain, chemical shift.
Serine/threonine-protein kinase mTOR (Homo sapiens), sequence (P42345 2015-2114): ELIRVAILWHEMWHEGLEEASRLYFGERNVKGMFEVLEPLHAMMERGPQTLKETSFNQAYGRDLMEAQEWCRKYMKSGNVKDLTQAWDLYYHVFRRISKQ

The Kd is the equilibrium constant for the complex coming apart.

On to `O=C1C2C3CCC(O3)C2C(=O)N1c1ccccc1` (stereo unspecified), for which the Kd is > 4 mM (inactive).

With `NS(=O)(=O)c1ccc2c(c1)OCCO2`, the Kd is > 4 mM (inactive).

Turning to `CC(CCC(=O)O)[C@H]1CCC2C3C(C[C@H](O)[C@@]21C)[C@@]1(C)CC[C@@H](O)C[C@H]1C[C@H]3O` (stereo partly specified), the Kd is > 4 mM (inactive).

For the compound `NC(=O)c1ccccc1N1CCCCC1`, the Kd was > 4 mM (inactive).

As to `O=C1CC(NCc2ccco2)C(=O)NN1` (stereo unspecified), the Kd is > 4 mM (inactive).

In the case of `Cc1ccc(Nc2nc(N)nc(CC#N)n2)cc1`, the Kd was > 4 mM (inactive).

For `COc1ccccc1NC(C)=O`, the Kd is > 4 mM (inactive).

As for `O=C(Nc1nnc(-c2ccccc2Cl)o1)c1ccco1`, the Kd was > 4 mM (inactive).

As for `O=C(c1ccccc1F)N1CCN(c2ccccc2)CC1`, the Kd was > 4 mM (inactive).

Take `Cn1nnc2cc(CN)ccc21`: the Kd was > 4 mM (inactive).

Regarding `O=C(Nc1cnc2ccccn2c1=O)c1ccc(F)cc1`, the Kd was > 4 mM (inactive).

As to `C=C(C)[C@H]1CC=C(C(=O)O)CC1`, the Kd is > 4 mM (inactive).

In the case of `CCC(=O)n1nc(-c2ccco2)nc1N`, the Kd is > 4 mM (inactive).

Turning to `O=C(NS(=O)(=O)c1ccccc1)c1ccccc1F`, the Kd is > 4 mM (inactive).

For `CN(C)C(=S)Nc1ccccc1N1CCOCC1`, the Kd was > 4 mM (inactive).

With `CC(=O)Nc1cc(C(N)=O)cc(C(N)=O)c1`, the Kd was > 4 mM (inactive).

For the compound `NC(=O)N1CCc2ccccc21`, the Kd was > 4 mM (inactive).

For `CC(C)NC(=O)c1cc(=O)n(C)c(=O)n1C`, the Kd is > 4 mM (inactive).

In the case of `O=C(O)c1ccc(N2CCOCC2)nc1`, the Kd was > 4 mM (inactive).

Regarding `NC(=O)C1CCN(C(=O)c2ccccc2)CC1`, the Kd is > 4 mM (inactive).

`CCc1nnc(NC(C)=O)s1`: the Kd was > 4 mM (inactive).

As for `O=C(Nc1nncs1)C1(c2ccccc2)CCCC1`, the Kd was > 4 mM (inactive).

For `OCC1CCN(c2ncccn2)CC1`, the Kd is > 4 mM (inactive).

Turning to `Nc1nc(SCc2ccccc2)ns1`, the Kd was > 4 mM (inactive).

On to `Cc1ccc(-n2ncc(C#N)c2/N=C/N(C)C)cc1`, for which the Kd was > 4 mM (inactive).

For `OC1CCCN(Cc2ccccc2)C1` (stereo unspecified), the Kd was > 4 mM (inactive).

Consider `O=C(NCCCO)c1ccncc1`, for which the Kd was > 4 mM (inactive).

As to `COc1cc(OC)c2c(=O)c(-c3ccccc3)coc2c1`, the Kd is > 4 mM (inactive).

For `c1ccc2[nH]c(-c3cscn3)nc2c1`, the Kd is > 4 mM (inactive).

Consider `CC(=O)OC1CCC23CC1(C)CCC2C(C)(C)CC3OC(C)=O` (stereo unspecified), for which the Kd is > 4 mM (inactive).

As to `COc1cccc(/C=C2/SC(N)=NC2=O)c1`, the Kd was > 4 mM (inactive).

Consider `Cc1c(-c2ccccc2)[n+](=O)c(-c2ccco2)c(C)n1[O-]`, for which the Kd is > 4 mM (inactive).

For `Cc1oc(-c2ccccc2)cc1CO`, the Kd is > 4 mM (inactive).

For the compound `OCc1ccc(Oc2ccccc2)nc1`, the Kd is > 4 mM (inactive).

In the case of `CCn1c2ccccc2c2nn(C)c(=N)nc21`, the Kd is > 4 mM (inactive).

For the compound `NC(=O)CNC(=O)c1ccc2ccccc2n1`, the Kd was > 4 mM (inactive).

For the compound `CC(C)Oc1ccc(C2CC(=O)NNC2=O)cc1` (stereo unspecified), the Kd was > 4 mM (inactive).

Turning to `O=C(O)c1ccc(CN2CCOCC2)cc1`, the Kd was > 4 mM (inactive).

Take `CN1CCN(Cc2cccnc2)CC1`: the Kd is > 4 mM (inactive).

On to `CC(C)=NNC(=O)C(=O)Nc1ccc(F)cc1`, for which the Kd is > 4 mM (inactive).

Take `COc1cc2c(cc1OC)[C@@H]1C(=O)c3ccc(O)c(CC=C(C)C)c3O[C@@H]1CO2`: the Kd was > 4 mM (inactive).

As to `Cc1csc2nc3ccccc3c(=O)n12`, the Kd was > 4 mM (inactive).

As to `Oc1cc2c(cc1O)C1c3ccc(O)c(O)c3OCC1(O)C2` (stereo unspecified), the Kd is > 4 mM (inactive).

Consider `O=C1NC2NC(=O)N(c3ccccc3)C2N1` (stereo unspecified), for which the Kd is > 4 mM (inactive).

On to `O=C(O)c1cnc2n(c1=O)CCS2`, for which the Kd is > 4 mM (inactive).

For `COc1ccccc1NC(N)=S`, the Kd is > 4 mM (inactive).

For `COc1ccc(-c2c(C)n([O-])c(C)c(C)[n+]2=O)cc1`, the Kd was > 4 mM (inactive).

On to `CCOC(=O)C1C(C=C(C)C)C1(C)C` (stereo unspecified), for which the Kd is > 4 mM (inactive).

As to `O=C(O)CCC(=O)Nc1ccccn1`, the Kd is > 4 mM (inactive).

On to `CN(C)C(=O)Oc1cccc(-c2nnco2)c1`, for which the Kd is > 4 mM (inactive).

`COc1ccc(-c2cn[nH]c2N)c(OC)c1`: the Kd is > 4 mM (inactive).

With `OCC1CNc2ccccc2O1` (stereo unspecified), the Kd was > 4 mM (inactive).

As for `COC(=O)C[C@H]1C(C)(C)C(=O)[C@@H]2CC3=C4CC(=O)O[C@@H](c5ccoc5)[C@]4(C)CCC3C1(C)C2=O` (stereo partly specified), the Kd was > 4 mM (inactive).

For `CSc1n[nH]c(NCc2ccccc2)n1`, the Kd is > 4 mM (inactive).

Regarding `Cc1cc(=O)oc2c1c(C)nn2CN1CCN(C)CC1`, the Kd was > 4 mM (inactive).

Take `COc1ccccc1-c1nc(=S)[nH][nH]1`: the Kd is > 4 mM (inactive).

Turning to `OCC1=Cc2ccccc2OC1`, the Kd was > 4 mM (inactive).

As to `Nc1nc(-c2ccncc2)cs1`, the Kd was > 4 mM (inactive).

As for `CC(C)CCCC(C)[C@H]1CCC2C3CC[C@H]4CC(=O)CC[C@]4(C)C3CC[C@@]21C` (stereo partly specified), the Kd is > 4 mM (inactive).

For the compound `CC1(C)CC(=O)c2cnn(-c3nc4ccccc4[nH]3)c2C1`, the Kd was > 4 mM (inactive).

As for `COc1cc(-c2coc3cc(OCc4ccccc4)c(OC)c(O)c3c2=O)cc(O)c1OC`, the Kd is > 4 mM (inactive).

With `NC(=O)Cc1nc(-c2ccccc2)cs1`, the Kd is > 4 mM (inactive).

For the compound `Cc1scc(C(=O)Nn2cnnc2)c1-c1ccccc1`, the Kd was > 4 mM (inactive).

On to `CC(C)CCn1cnc2c1c(=O)n(C)c(=O)n2C`, for which the Kd is > 4 mM (inactive).

For `CS(=O)(=O)N/N=C/c1cccs1`, the Kd is > 4 mM (inactive).

For `Nc1ccc(-c2csnn2)cc1`, the Kd was > 4 mM (inactive).

For the compound `O=C(c1nc2ccccc2s1)N1CCSCC1`, the Kd is > 4 mM (inactive).

For `CCCS(=O)(=O)N1CCN(c2ccccn2)CC1`, the Kd is > 4 mM (inactive).

Turning to `NC(=O)NC1C=CS(=O)(=O)C1` (stereo unspecified), the Kd is > 4 mM (inactive).

Turning to `CC(C)=CCc1c(O)cc2oc(C)cc(=O)c2c1O`, the Kd was > 4 mM (inactive).

For `CSc1nnc2c(n1)OC=Nc1ccccc1-2`, the Kd was > 4 mM (inactive).

Regarding `Cc1ccc(-c2c(C)n([O-])c3c([n+]2=O)CCCC3)o1`, the Kd was > 4 mM (inactive).

For `Cc1onc(-c2c(Cl)cccc2Cl)c1C(N)=O`, the Kd was > 4 mM (inactive).

For `O=C1Nc2ccccc2C1C1(O)C(=O)Nc2ccc(F)cc21` (stereo unspecified), the Kd is > 4 mM (inactive).

Regarding `O=C(O)C(O)C(O)C(O)C(O)C(=O)O` (stereo unspecified), the Kd was > 4 mM (inactive).

As for `Cc1[nH]ccc2c1[nH]c1cc(=O)ccc12`, the Kd is > 4 mM (inactive).

In the case of `CC(CCC(=O)O)[C@H]1CCC2C3CC[C@@H]4C[C@H](O)CC[C@]4(C)C3C[C@H](O)[C@@]21C` (stereo partly specified), the Kd is > 4 mM (inactive).

In the case of `COc1c(F)c(F)c(-c2csc(N)n2)c(F)c1F`, the Kd is > 4 mM (inactive).

As to `COC(=O)C[C@@H]1C2(C)C(=O)[C@@H](CC3=C4CC(=O)O[C@@H](c5ccoc5)[C@]4(C)CCC32)[C@H](OC(C)=O)C1(C)C` (stereo partly specified), the Kd is > 4 mM (inactive).

As for `Cc1ccc(S(=O)(=O)CC(N)=O)cc1`, the Kd was > 4 mM (inactive).

In the case of `CC(CCC(=O)O)[C@H]1CCC2C3CC[C@@H]4CCCC[C@]4(C)C3CC[C@@]21C` (stereo partly specified), the Kd was > 4 mM (inactive).

As for `COc1ccc(-c2nc3nc(C)cc(C)n3n2)cc1`, the Kd is > 4 mM (inactive).

In the case of `Cn1c(SCc2ccon2)nc2ccccc2c1=O`, the Kd is > 4 mM (inactive).

As to `O=c1cc(-c2ccc(O)cc2)[nH]c(=S)[nH]1`, the Kd is > 4 mM (inactive).

As for `O=C(O)CNS(=O)(=O)c1cccs1`, the Kd is > 4 mM (inactive).

Take `CNC(=O)Nc1ccc(C(=O)NC)cc1`: the Kd is > 4 mM (inactive).

On to `O=C(O)C1CC(=O)N(Cc2ccc(F)cc2)C1` (stereo unspecified), for which the Kd is > 4 mM (inactive).

For the compound `c1cc2n(c1)CCNC2c1ccncc1` (stereo unspecified), the Kd was > 4 mM (inactive).

In the case of `CCCNC(=O)c1cnc2n(c1=O)CCS2`, the Kd is > 4 mM (inactive).

Regarding `C=C1C(=O)O[C@@H]2C3OC3(C)CC/C=C(\C)CC[C@@H]12` (stereo partly specified), the Kd is > 4 mM (inactive).

Take `NC(=O)c1cccc2c1OCCO2`: the Kd was > 4 mM (inactive).

Regarding `Cn1cnc2nc3n(c2c1=O)CCC3`, the Kd was > 4 mM (inactive).

Take `O=C(O)c1ccc2c(c1)OCO2`: the Kd was > 4 mM (inactive).

Take `O=C1C=CC(=O)c2c(O)cccc21`: the Kd is > 4 mM (inactive).

Consider `COC(=O)c1ccc2snnc2c1`, for which the Kd is > 4 mM (inactive).

Consider `O=S(=O)(Cc1ccccc1)N1CCCCCC1`, for which the Kd is > 4 mM (inactive).

On to `Cc1cc(SCC(=O)c2ccccc2)nc(=O)[nH]1`, for which the Kd is > 4 mM (inactive).

For `CC(=O)N1N=C(N)SC1c1cccnc1` (stereo unspecified), the Kd was > 4 mM (inactive).

`O=C(Nc1ccccc1)c1cccc(N2C(=O)CCC2=O)c1`: the Kd is > 4 mM (inactive).

`CC(C)(C)C(=O)N1CCCC1C(=O)O` (stereo unspecified): the Kd is > 4 mM (inactive).

For `Nc1nc(-c2nc3ccccc3[nH]2)cs1`, the Kd was > 4 mM (inactive).

As for `Cn1c(=O)[nH]c(=O)c2nsnc21`, the Kd is > 4 mM (inactive).

Regarding `O=C1CNC(=O)N1Cc1ccc(Br)cc1`, the Kd was > 4 mM (inactive).

Regarding `CSc1nc(NC(C)C)nc(N2CCOCC2)n1`, the Kd is > 4 mM (inactive).

Regarding `CN(C)Cc1c(N)cccc1O`, the Kd was > 4 mM (inactive).

On to `NC(=O)C1CCN(C(=O)CN2CCc3ccccc32)CC1`, for which the Kd is > 4 mM (inactive).
